Results on 8 molecules are retold here after ChEMBL document CHEMBL4359824, “Dual FLT3 inhibitors: Against the drug resistance of acute myeloid leukemia in recent decade” (Eur J Med Chem, 2019).

As usually defined, the pEC50 is the negative decadic logarithm of the EC50, by convention in mol/L. Broadly, the pKd is −log10 of the Kd, conventionally taken in molar units. The pIC50 is the negative decadic logarithm of the IC50, by convention in mol/L. The bioavailability is the share of a dose that reaches the circulation, judged against a reference dose that is usually intravenous.

Data set [1] concerns MV4-11. Kind of data set: Cytotoxicity against human MV4-11 cells. The class given is functional, cell-based.
In data set [2] the test system is MOLM-13. Kind of data set: Cytotoxicity against human MOLM13 cells. The class given is functional, cell-based.
Data set [3] concerns MOLM-14. Kind of data set: Cytotoxicity against human MOLM14 cells. The class given is functional, cell-based.
Data set [4] has as its target Serine/threonine-protein kinase pim-3 (Homo sapiens, UniProt Q86V86). Kind of data set: Binding affinity to Pim-3 (unknown origin).
Data set [5] deals with Serine/threonine-protein kinase pim-2 (Homo sapiens, UniProt Q9P1W9). The data set can be described thus: Binding affinity to Pim-2 (unknown origin).
Data set [6] deals with Serine/threonine-protein kinase pim-1 (Homo sapiens, UniProt P11309). The data set can be described thus: Binding affinity to Pim-1 (unknown origin).
The target in data set [7] is T1, Receptor-type tyrosine-protein kinase FLT3 (Homo sapiens, UniProt P36888).
T1 sequence (P36888 whole entry): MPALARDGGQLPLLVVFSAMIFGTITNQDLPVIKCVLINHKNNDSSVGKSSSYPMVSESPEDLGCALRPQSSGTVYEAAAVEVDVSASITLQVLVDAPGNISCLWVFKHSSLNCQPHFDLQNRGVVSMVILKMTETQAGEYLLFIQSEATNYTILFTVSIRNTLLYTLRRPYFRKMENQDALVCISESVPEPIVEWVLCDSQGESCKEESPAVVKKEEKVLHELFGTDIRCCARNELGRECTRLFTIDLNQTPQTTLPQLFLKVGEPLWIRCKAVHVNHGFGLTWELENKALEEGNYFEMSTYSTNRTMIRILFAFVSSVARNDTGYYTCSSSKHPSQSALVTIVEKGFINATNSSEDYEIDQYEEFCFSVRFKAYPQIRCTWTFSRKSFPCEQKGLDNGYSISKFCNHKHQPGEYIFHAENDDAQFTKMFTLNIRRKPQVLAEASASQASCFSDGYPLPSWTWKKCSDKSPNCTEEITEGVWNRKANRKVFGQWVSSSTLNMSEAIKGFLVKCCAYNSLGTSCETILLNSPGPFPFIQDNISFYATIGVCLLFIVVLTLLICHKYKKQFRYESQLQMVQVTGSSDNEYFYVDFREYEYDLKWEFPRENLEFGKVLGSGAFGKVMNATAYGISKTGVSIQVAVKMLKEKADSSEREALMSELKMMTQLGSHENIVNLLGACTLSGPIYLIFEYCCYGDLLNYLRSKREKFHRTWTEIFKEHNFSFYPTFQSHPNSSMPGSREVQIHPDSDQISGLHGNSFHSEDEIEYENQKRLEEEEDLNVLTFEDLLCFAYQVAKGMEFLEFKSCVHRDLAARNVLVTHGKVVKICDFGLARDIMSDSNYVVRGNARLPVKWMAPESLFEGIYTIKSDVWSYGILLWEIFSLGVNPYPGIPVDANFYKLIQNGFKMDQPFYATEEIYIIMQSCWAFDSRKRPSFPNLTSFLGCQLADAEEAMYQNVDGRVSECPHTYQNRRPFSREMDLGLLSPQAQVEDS
The data set can be described thus: Binding affinity to FLT3 (unknown origin).

Data set [8] addresses T1, Receptor-type tyrosine-protein kinase FLT3. Kind of data set: Inhibition of wild type FLT3 (unknown origin) expressed in mouse BAF3 cells. The class given is cell-based.
The subject of data set [9] is MV4-11. The data set can be described thus: Cytotoxicity against human MV4-11 cells expressing FLT3 ITD mutant. The class given is functional, cell-based.
The subject of data set [10] is MOLM-13. Kind of data set: Cytotoxicity against human MOLM13 cells expressing FLT3 ITD mutant. Format: functional, cell-based.
Data set [11] has as its system MV4-11. The data set can be described thus: Antitumor activity against human MV4-11 cells xenografted in SCID/beige mouse assessed as tumor growth inhibition at 75 mg/kg administered daily relative to control. Format: functional. The following applies: read-out: TGI. A general note: A xenograft is tissue or cells of one species grown in another, often human tumour cells in immunodeficient mice.

The test system of data set [12] is MV4-11. Kind of data set: Antitumor activity against human MV4-11 cells xenografted in SCID/beige mouse assessed as tumor growth inhibition at 50 mg/kg administered daily relative to control. Format: functional. As to conditions: read-out: TGI.
For data set [13], the system named is MV4-11. Kind of data set: Antitumor activity against human MV4-11 cells xenografted in SCID/beige mouse assessed as tumor growth inhibition at 100 mg/kg administered daily relative to control. Format: functional. As to conditions: read-out: TGI.
The target of data set [14] is Dual specificity mitogen-activated protein kinase kinase 1 (Homo sapiens, UniProt Q02750). The data set can be described thus: Inhibition of MEK1 (unknown origin) phosphorylation by [gamma-33P]-ATP assay.
Data set [15] in a line: Cytotoxicity against mouse Ba/F3 FLT3-D835Y cells by trypan blue dye exclusion method. Format: functional, cell-based. The following applies: BaF3.
Data set [16] addresses T1, Receptor-type tyrosine-protein kinase FLT3. Kind of data set: Inhibition of FLT3 (unknown origin) phosphorylation by [gamma-33P]-ATP assay.
Data set [17] is described as follows: Cytotoxicity against mouse BAF3(transformed) cells harboring D835G mutant by trypan blue dye exclusion method. Format: functional, cell-based.
Data set [18] relates to MV4-11. The data set can be described thus: Antiproliferative activity against human MV4-11 cells after 48 hrs by CellTiter-Glo assay. The class given is functional, cell-based. The following applies: MV4-11, 48 h.
The subject of data set [19] is MOLM-13. Kind of data set: Antiproliferative activity against human MOLM13 cells after 48 hrs by CellTiter-Glo assay. Format: functional, cell-based. The following applies: MOLM-13, 48 h. Background: Cellular ATP, detected with luciferase, serves as a proxy for viable cell number.
The nature of data set [20]: Oral bioavailability in dog. Format: ADME, organism-based, Canis lupus familiaris. The following applies: in vivo.
Data set [21] is described as follows: Oral bioavailability in monkey. The class given is ADME, organism-based, Macaca mulatta. The following applies: rhesus monkey, in vivo.

Each structure is given as a SMILES string. pEC50, pIC50, pKd: −log10 of the molar value.

Chain of Serine/threonine-protein kinase pim-1 (P11309 whole entry): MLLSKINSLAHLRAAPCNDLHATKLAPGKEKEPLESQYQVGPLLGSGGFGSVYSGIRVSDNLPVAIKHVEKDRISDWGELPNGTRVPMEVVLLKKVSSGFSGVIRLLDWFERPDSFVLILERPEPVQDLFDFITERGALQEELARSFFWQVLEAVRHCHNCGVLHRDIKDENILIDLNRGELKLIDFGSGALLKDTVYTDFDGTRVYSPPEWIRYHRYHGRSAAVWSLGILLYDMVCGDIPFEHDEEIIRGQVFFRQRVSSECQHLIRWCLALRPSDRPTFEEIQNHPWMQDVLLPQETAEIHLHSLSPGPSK
Chain of Dual specificity mitogen-activated protein kinase kinase 1 (Q02750 whole entry): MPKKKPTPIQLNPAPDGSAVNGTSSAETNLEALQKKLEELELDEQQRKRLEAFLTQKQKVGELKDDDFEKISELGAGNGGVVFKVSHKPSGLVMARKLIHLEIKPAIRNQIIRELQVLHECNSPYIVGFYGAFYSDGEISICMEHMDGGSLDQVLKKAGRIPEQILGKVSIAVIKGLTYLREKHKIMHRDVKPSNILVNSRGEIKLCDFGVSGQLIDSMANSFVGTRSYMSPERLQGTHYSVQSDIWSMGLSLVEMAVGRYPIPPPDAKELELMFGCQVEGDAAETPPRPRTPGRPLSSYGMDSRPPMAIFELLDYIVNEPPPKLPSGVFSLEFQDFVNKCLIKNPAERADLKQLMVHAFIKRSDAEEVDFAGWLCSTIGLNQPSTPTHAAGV
Chain of Serine/threonine-protein kinase pim-2 (Q9P1W9 whole entry): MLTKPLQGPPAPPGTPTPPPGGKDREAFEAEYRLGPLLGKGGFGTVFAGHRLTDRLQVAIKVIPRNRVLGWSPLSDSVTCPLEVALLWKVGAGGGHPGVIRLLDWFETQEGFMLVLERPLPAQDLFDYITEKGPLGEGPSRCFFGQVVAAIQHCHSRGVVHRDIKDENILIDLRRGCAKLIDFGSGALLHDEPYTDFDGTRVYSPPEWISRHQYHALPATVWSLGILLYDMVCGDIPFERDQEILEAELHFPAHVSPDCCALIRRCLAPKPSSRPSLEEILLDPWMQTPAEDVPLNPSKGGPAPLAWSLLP

Turning to `Cc1n[nH]c2ccc(-c3cncc(OC[C@@H](N)Cc4ccccc4)c3)cc12`, the pEC50 was 7.04 in [1], 6.77 in data set [2] and 7.22 in [3].

Consider `C[C@]12O[C@H](C[C@H](O)[C@H]1O)n1c3ccccc3c3c4c(c5c6ccccc6n2c5c31)C(=O)NC4=O`, for which the pKd is 9.40 in [4], 8.51 in data set [5], 8.54 in [6] and 8.49 in data set [7].

`COc1cccc2nc(-c3cccs3)nc(NN3C(=O)C=C(C)C3=O)c12` [AS-602868] had a pIC50 in data set [8] of 6.21.

On to `CC1(COc2ccc3c(c2)ncn3-c2ccc3cccc(N4CCC(N)CC4)c3n2)COC1` [CRENOLANIB], for which the pIC50 is 8.82 in [9] and 8.31 in data set [10].

`CC(C)n1c(C2CCNCC2)nc2c([N+](=O)[O-])c(Br)c(Br)cc21` [DAPOLSERTIB]: in data set [11], the inhibition in vivo at 75 mg/kg came to 74%. The inhibition in vivo at 50 mg/kg in [12] was 67%. In data set [13], the inhibition in vivo at 100 mg/kg is 82%.

Regarding `CCNc1cc(O)c2c(c1)/C=C/C[C@H](O)[C@H](O)C(=O)/C=C\[C@@H](C)[C@H](C)OC2=O` [E-6201], the pIC50 in data set [14] is 7.30; in data set [15], 4.59; in data set [16], 8.30; in [17] it was 5.34.

For the molecule `C1=N/C2=N/c3ccc(OCCN4CCCC4)c(c3)COC/C=C/COCc3cccc(c3)C(=C1)N2` [PACRITINIB], the pIC50 in [18] was 7.17; in [19] it was 7.33.

Regarding `COc1cc2c(N3CCN(C(=O)Nc4ccc(OC(C)C)cc4)CC3)ncnc2cc1OCCCN1CCCCC1` [TANDUTINIB], the bioavailability worked out at 50% in data set [20] and 100% in data set [21].
